Results taken from the NIST ThermoML archive (doi:10.1021/je400029t).
± gives the expanded uncertainty stated by the source.

Experiments:
[1] = Crystal; DTA
[2] = Molar enthalpy of transition or fusion; details: Crystal; DSC

For `COc1ccc(C(=O)O)cc1OC` [3,4-dimethoxybenzoic acid], the Normal melting temperature [1] was 179.97 ± 0.53 °C and the “Molar enthalpy of transition or fusion” value [2] was 7.07 ± 0.311 kcal/mol.
